From EP4729537A1, “B-LACTAMASE-INHIBITING ANTIBODY AND USE THEREOF IN THE TREATMENT AND/OR PREVENTION OF INFECTIONS CAUSED BY B-LACTAMASE-PRODUCING BACTERIA” (priority 2023, dated 2024) come the findings set out here.

This test addresses KPC-2 (UNIPROT Q9F663) from Klebsiella pneumoniae, SEQ ID NO. 32 (Klebsiella pneumoniae, UniProt Q9F663). The following applies: E. coli cells. On the procedure: An in vivo assay was conducted to test the inhibitory capacity of four β-lactamases from three resistant microorganisms: BlaMab from Mycobacterium abscessus, KPC-2 (UNIPROT Q9F663) and OXA-48 (UNIPROT Q6XEC0) from Klebsiella pneumoniae, and VIM-2 (UNIPROT B8QIQ9) from Pseudomonas aeruginosa. The assay utilized BL21(DE3) strain cells of Escherichia coli transformed with the expression vector pET26b(+) along with the gene sequence of each β-lactamase. Cells successfully transformed with the vector and insert were selected using a Kanamycin resistance gene (KanR) present in the vector. The presence and orientation of the insert were confirmed using PCR and sequencing. Additionally, the pET26b(+) vector has an IPTG-inducible promoter to activate the translation of the corresponding β-lactamase. The plasmid also includes a pelB export signal directing the β-lactamase to the periplasmic space of the bacteria for the inhibition assay with Ndis (nanobodies, single-domain antibodies).
To obtain Table 4 with the enzymatic constants (Km, Vmax, Kmi, and Ki) of BlaMab-2, KPC-2, VIM-2, and OXA-48 with B2 and B5, a quantitative assay was performed using a cephalosporin analog: nitrocefin. This compound changes color from yellow to red when hydrolyzed by β-lactamase, which can be quantified by measuring absorbance at 490nm. This method was used to study the membrane permeability of the antibodies in the bacteria as well as the inhibitory effect of B2 and B5 on the activity of BlaMab, KPC-2, OXA48, and VIM-2.

Molecules are shown by their SMILES. Read-outs that look alike come from different tables or passages of the source.

Chain of KPC-2 (UNIPROT Q9F663) from Klebsiella pneumoniae, SEQ ID NO. 32 (Q9F663 25-293 limits assumed): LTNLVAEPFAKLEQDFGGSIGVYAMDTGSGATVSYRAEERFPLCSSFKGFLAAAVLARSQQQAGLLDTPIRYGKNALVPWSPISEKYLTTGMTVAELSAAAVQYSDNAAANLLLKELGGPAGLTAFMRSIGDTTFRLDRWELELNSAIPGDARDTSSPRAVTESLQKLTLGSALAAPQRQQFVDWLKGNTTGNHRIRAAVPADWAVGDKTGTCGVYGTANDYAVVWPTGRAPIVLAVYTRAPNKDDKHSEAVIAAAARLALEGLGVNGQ

Turning to `O=C(Cc1cccs1)N[C@@H]1C(=O)N2C(C(=O)O)=C(/C=C/c3ccc([N+](=O)[O-])cc3[N+](=O)[O-])CS[C@H]12` [nitrocefin], the Km was 121 µM (read-out: Km(µM) B2, with antibody B2); 2.19 µM (read-out: Km(µM) B5, with antibody B5); 1.36 µM (read-out: Km(µM) Control without antibody, control without antibody (controls of the B2 and B5 runs)).
